Experiments:
Experiment in all cases: Carna kinome panel
Type in all cases: biochemical
Settings in all cases: read-out: % Inhibition at 10 μM of the test compound
MSSK1 = MSSK1 (Homo sapiens (Human), UniProt Q9UPE1)
FGFR3(K650E) = FGFR3(K650E) (Homo sapiens (Human), UniProt P22607, K650E)
AXL = AXL (Homo sapiens (Human), UniProt P30530)
Erk1 = Erk1 (Homo sapiens (Human), UniProt P27361)
Haspin = Haspin (Homo sapiens (Human), UniProt Q8TF76)
PKCγ = PKCγ (Homo sapiens (Human), UniProt P05129)
LOK = LOK (Homo sapiens (Human), UniProt O94804)
PKCη = PKCη (Homo sapiens (Human), UniProt P24723)
PAK6 = PAK6 (Homo sapiens (Human), UniProt Q9NQU5)
EPHA5 = EPHA5 (Homo sapiens (Human), UniProt P54756)
BRAF_Cascade = BRAF_Cascade (Homo sapiens (Human), UniProt P15056)
EGFR(L861Q) = EGFR(L861Q) (Homo sapiens (Human), UniProt P00533, L861Q)
BRAF(V600E)_Cascade = BRAF(V600E)_Cascade (Homo sapiens (Human), UniProt P15056, V600E)
KIT(V654A) = KIT(V654A) (Homo sapiens (Human), UniProt P10721, V654A)
AMPKα2/β1/γ1 = AMPKα2/β1/γ1 (Homo sapiens (Human), UniProt P54646)
LYNa = LYNa (Homo sapiens (Human), UniProt P07948)
CDK7/CycH/MAT1 = CDK7/CycH/MAT1 (Homo sapiens (Human), UniProt P50613)
DDR2 = DDR2 (Homo sapiens (Human), UniProt Q16832)
MST1 = MST1 (Homo sapiens (Human), UniProt Q13043)
EPHB3 = EPHB3 (Homo sapiens (Human), UniProt P54753)
p38β = p38β (Homo sapiens (Human), UniProt Q15759)
EGFR(T790M/L858R) = EGFR(T790M/L858R) (Homo sapiens (Human), UniProt P00533, L858R/T790M)
IKKε = IKKε (Homo sapiens (Human), UniProt Q14164)
HCK = HCK (Homo sapiens (Human), UniProt P08631)
RSK1 = RSK1 (Homo sapiens (Human), UniProt Q15418)
IRAK1 = IRAK1 (Homo sapiens (Human), UniProt P51617)
MAP2K7_Cascade = MAP2K7_Cascade (Homo sapiens (Human), UniProt O14733)
PKCδ = PKCδ (Homo sapiens (Human), UniProt Q05655)
PKCι = PKCι (Homo sapiens (Human), UniProt P41743)
CLK3 = CLK3 (Homo sapiens (Human), UniProt P49761)
MARK4 = MARK4 (Homo sapiens (Human), UniProt Q96L34)
HER2 = HER2 (Homo sapiens (Human), UniProt P04626)
PAK4 = PAK4 (Homo sapiens (Human), UniProt O96013)
WNK1 = WNK1 (Homo sapiens (Human), UniProt Q9H4A3)
CSK = CSK (Homo sapiens (Human), UniProt P41240)
MET(D1228H) = MET(D1228H) (Homo sapiens (Human), UniProt P08581, D1228H)
MER = MER (Homo sapiens (Human), UniProt Q12866)
SIK = SIK (Homo sapiens (Human), UniProt P57059)
PAK2 = PAK2 (Homo sapiens (Human), UniProt Q13177)
FYN(isoform a) = FYN(isoform a) (Homo sapiens (Human), UniProt P06241)

AXL, sequence (P30530 26-894): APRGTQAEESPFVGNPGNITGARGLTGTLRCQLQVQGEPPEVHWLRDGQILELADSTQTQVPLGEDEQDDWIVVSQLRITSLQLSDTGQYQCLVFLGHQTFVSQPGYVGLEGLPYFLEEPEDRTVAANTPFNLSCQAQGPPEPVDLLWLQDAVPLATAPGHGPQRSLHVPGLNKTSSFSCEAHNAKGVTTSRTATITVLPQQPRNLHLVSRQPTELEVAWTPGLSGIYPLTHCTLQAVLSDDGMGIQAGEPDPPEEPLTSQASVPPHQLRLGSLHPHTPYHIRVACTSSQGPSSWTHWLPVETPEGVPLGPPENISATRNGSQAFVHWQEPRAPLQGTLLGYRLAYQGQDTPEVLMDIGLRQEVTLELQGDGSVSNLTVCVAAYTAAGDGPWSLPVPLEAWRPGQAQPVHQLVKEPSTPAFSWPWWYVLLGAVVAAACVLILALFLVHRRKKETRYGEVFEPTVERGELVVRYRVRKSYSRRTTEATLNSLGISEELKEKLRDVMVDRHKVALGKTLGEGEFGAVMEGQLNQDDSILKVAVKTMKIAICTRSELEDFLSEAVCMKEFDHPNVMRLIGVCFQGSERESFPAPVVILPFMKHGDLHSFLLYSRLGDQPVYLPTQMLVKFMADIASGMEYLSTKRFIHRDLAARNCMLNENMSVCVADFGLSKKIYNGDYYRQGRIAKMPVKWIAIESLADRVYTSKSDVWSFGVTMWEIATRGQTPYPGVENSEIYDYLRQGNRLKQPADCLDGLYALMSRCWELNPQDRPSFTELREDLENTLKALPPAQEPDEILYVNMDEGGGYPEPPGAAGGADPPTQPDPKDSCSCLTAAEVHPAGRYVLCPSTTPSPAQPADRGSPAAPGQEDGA
p38β, sequence (Q15759 whole entry, looked up): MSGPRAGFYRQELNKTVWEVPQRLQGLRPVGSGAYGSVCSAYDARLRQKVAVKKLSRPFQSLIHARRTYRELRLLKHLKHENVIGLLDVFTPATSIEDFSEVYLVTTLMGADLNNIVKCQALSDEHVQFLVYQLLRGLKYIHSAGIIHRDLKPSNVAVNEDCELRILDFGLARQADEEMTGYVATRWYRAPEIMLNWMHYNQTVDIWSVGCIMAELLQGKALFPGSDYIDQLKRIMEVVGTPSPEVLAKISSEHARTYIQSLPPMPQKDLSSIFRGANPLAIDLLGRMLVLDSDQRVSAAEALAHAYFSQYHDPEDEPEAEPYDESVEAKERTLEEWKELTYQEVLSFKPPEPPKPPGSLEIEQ
CLK3, sequence (P49761 whole entry): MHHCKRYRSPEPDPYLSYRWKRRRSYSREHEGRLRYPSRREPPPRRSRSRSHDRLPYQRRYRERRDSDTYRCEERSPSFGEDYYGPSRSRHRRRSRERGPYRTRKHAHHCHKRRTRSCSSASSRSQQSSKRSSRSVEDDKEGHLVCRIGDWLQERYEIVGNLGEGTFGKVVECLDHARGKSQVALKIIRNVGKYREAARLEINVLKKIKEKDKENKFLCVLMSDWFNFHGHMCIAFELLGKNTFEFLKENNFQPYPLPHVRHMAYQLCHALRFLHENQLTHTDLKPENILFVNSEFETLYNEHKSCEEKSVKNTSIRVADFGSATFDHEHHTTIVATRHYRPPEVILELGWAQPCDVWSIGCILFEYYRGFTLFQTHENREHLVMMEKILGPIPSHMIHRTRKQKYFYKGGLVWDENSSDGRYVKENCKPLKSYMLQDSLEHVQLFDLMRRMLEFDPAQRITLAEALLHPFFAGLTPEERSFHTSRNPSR
EGFR(L861Q), sequence (P00533 25-1210 L861Q): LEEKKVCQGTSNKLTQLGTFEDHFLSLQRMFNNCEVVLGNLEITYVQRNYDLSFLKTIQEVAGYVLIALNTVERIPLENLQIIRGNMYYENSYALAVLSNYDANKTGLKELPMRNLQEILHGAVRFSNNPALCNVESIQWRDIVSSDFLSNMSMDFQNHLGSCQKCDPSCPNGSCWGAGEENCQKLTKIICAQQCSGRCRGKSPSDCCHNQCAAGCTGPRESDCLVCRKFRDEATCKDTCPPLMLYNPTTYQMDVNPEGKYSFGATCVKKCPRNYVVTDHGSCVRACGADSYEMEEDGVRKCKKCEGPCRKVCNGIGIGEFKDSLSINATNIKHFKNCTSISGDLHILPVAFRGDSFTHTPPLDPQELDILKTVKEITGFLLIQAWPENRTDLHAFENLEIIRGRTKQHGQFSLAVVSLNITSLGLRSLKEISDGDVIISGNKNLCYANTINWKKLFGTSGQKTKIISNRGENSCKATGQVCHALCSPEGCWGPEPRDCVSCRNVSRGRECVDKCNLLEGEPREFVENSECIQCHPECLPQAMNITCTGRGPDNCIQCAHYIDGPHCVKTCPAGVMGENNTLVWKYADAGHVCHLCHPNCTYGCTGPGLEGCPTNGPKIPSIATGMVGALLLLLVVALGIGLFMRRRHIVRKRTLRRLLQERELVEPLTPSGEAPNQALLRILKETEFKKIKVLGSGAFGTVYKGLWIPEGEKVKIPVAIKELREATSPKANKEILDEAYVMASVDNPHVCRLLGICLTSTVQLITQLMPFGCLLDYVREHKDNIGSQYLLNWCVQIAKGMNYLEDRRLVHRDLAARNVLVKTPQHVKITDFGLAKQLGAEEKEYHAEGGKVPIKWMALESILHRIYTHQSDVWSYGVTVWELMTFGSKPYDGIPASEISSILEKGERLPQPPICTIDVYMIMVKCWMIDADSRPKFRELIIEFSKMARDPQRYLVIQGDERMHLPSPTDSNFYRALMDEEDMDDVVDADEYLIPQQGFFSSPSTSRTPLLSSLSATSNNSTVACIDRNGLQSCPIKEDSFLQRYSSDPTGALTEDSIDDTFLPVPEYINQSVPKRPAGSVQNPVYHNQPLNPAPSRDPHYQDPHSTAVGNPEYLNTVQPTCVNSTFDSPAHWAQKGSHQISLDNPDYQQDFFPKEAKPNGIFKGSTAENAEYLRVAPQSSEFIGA
HER2, sequence (P04626 23-1255): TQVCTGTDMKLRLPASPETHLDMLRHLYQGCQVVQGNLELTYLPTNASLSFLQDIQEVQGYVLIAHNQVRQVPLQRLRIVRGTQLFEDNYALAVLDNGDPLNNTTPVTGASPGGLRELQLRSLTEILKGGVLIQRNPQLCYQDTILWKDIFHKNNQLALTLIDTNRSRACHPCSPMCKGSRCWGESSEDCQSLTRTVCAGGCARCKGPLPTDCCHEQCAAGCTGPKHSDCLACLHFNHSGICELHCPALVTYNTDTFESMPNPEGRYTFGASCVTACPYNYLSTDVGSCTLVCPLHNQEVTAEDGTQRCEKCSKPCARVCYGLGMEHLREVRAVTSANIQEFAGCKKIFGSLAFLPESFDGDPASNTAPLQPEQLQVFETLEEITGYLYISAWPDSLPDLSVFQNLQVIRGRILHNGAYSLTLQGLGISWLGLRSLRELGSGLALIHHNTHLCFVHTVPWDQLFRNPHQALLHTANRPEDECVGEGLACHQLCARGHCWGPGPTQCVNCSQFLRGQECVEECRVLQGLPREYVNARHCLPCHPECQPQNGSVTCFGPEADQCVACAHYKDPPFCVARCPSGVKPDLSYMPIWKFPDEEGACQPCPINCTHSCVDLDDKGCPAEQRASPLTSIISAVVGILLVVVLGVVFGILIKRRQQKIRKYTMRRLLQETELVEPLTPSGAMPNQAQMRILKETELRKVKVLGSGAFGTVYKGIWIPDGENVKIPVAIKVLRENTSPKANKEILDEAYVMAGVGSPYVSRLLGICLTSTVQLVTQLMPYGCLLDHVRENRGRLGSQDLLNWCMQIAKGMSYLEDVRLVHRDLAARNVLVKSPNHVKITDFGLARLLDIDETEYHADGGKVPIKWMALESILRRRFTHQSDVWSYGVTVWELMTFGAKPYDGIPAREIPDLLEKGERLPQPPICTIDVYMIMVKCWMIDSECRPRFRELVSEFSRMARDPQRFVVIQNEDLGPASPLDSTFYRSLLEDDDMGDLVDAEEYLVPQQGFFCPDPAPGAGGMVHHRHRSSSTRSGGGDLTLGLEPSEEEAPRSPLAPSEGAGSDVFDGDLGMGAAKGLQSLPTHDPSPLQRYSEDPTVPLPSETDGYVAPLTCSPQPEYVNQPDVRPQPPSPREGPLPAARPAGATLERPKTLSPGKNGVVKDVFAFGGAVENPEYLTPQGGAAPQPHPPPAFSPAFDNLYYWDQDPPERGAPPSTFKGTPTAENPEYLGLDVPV
PAK2, sequence (Q13177 whole entry, canonical isoform): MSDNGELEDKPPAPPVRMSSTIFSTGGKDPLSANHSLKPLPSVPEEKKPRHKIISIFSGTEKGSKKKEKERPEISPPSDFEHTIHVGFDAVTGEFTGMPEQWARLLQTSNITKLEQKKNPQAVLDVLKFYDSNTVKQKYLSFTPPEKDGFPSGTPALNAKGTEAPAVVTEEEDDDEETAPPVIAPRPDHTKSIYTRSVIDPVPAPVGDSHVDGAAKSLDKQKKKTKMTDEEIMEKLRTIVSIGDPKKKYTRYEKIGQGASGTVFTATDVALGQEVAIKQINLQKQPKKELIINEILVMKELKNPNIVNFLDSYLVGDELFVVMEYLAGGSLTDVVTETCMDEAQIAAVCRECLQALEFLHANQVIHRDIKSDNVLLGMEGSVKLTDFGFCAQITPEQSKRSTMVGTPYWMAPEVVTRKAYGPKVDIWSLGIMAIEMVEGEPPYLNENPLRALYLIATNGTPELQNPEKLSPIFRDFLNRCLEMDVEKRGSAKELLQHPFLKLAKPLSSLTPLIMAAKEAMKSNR
Erk1, sequence (P27361 whole entry, looked up): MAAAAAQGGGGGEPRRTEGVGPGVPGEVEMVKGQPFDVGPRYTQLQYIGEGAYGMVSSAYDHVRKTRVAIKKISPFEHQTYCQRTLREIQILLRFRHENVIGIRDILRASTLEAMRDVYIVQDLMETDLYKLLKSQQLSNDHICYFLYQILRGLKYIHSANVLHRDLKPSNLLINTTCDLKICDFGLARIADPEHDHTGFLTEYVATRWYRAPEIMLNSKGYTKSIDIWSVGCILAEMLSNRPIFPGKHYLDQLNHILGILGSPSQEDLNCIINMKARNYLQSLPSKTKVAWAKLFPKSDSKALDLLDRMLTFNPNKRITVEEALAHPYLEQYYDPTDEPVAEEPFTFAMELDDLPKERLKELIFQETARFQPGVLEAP

CCC1(c2ccccc2)C2=C(CC(C)(C)CC2=O)Nc2ncsc21 (stereo not shown) [Compound 1, 9-Ethyl-6,6-dimethyl-9-phenyl-5,6,7,9-tetrahydrothiazolo[4,5-b]quinolin-8(4H)-one]
inhibition at 10 µM (MSSK1): 1.2% | inhibition at 10 µM (FGFR3(K650E)): -3% | inhibition at 10 µM (AXL): 6.5% | inhibition at 10 µM (Erk1): 5.6% | inhibition at 10 µM (Haspin): 1.5% | inhibition at 10 µM (PKCγ): -7.7% | inhibition at 10 µM (LOK): -4.7% | inhibition at 10 µM (PKCη): 9.3% | inhibition at 10 µM (PAK6): 3.9% | inhibition at 10 µM (EPHA5): 9.3% | inhibition at 10 µM (BRAF_Cascade): 6.2% | inhibition at 10 µM (EGFR(L861Q)): -6.1% | inhibition at 10 µM (BRAF(V600E)_Cascade): 6.1% | inhibition at 10 µM (KIT(V654A)): -3.5% | inhibition at 10 µM (AMPKα2/β1/γ1): -4.1% | inhibition at 10 µM (LYNa): 6% | inhibition at 10 µM (CDK7/CycH/MAT1): 22.6% | inhibition at 10 µM (DDR2): 0.6% | inhibition at 10 µM (MST1): -6.6% | inhibition at 10 µM (EPHB3): -4.8% | inhibition at 10 µM (p38β): 3.8% | inhibition at 10 µM (EGFR(T790M/L858R)): -15.5% | inhibition at 10 µM (IKKε): 4.2% | inhibition at 10 µM (HCK): -3% | inhibition at 10 µM (RSK1): -2% | inhibition at 10 µM (IRAK1): -8.9% | inhibition at 10 µM (MAP2K7_Cascade): 2.8% | inhibition at 10 µM (PKCδ): 2.4% | inhibition at 10 µM (PKCι): -2.7% | inhibition at 10 µM (CLK3): 3.9% | inhibition at 10 µM (MARK4): -15.7% | inhibition at 10 µM (HER2): -1% | inhibition at 10 µM (PAK4): 17% | inhibition at 10 µM (WNK1): -2.1% | inhibition at 10 µM (CSK): 6.1% | inhibition at 10 µM (MET(D1228H)): -7.7% | inhibition at 10 µM (MER): 3.8% | inhibition at 10 µM (SIK): 5.6% | inhibition at 10 µM (PAK2): -15.7% | inhibition at 10 µM (FYN(isoform a)): 1.8%

Reference: patent US11203601B2, “Tricyclic compounds as glycogen synthase kinase 3 (GSK3) inhibitors and uses thereof” (The Broad Institute, Inc., priority 2017, dated 2021)
